US12421282B2, “Compositions and methods for the treatment of metabolic and liver disorders” (priority 2021, dated 2025)
Read-outs that look alike come from different tables or passages of the source. *1 amine or outer side, *2 acyl side, *3 side chain or, on linkers, in order; H or OH if unused. Where a SMILES comes first, the peptide text is derived from it. Side-chain parts run from the residue outwards. [ ]: non-standard residue; d: D form. The star is where a group is joined. Nonadecanoyl(19-PO3H2) = O=C(CCCCCCCCCCCCCCCCCCP(=O)(O)O)*; γGlu = O=C(O)[C@H](CCC(=O)[*:2])N[*:1]; AEEA = NCCOCCOCC(=O)O; Aib = CC(C)(N)C(=O)O

Key:
[1] = target: human recombinant GLP-1 receptor (Homo sapiens, UniProt P43220); experiment: TagLite binding assay, GLP-1 receptor, without and with 2% HSA
Description: (§1) Binding data for Compounds 15-25, for two human recombinant G protein coupled receptors, GLP-1 and GIP, was obtained using […]® binding assay and Epics Therapeutics cell lines. The binding assay was repeated in the presence of 2% human serum albumin (HSA). Compounds 16, 21, and 22 have an HSA ratio for the GLP-1 receptor of 7.1, 7.6, and 7.8, respectively. Compounds 15, 18, and 23 have an HSA ratio for the GIP receptor of 7.3, 4.3, and 6.4, respectively. A lower HSA ratio indicates greater binding affinity for the receptor than for albumin when compared to a compound with a greater HSA ratio.

[2] = design: species or system cynomolgus monkeys; details: cynomolgus monkey, in vivo, sc, 0.2 mg/kg
Experimental: Subcutaneous (SC) dosing of the compounds in a vehicle of 0.1% bovine serum albumin in phosphate buffered saline solution was performed with male cynomolgus monkeys. […] Samples were obtained at 1, 4, 8, 12, 24, 48, 72, 96, 120, 168, 192, 240 and 336 hours after the single dose was administered.

[3] = target: T1, human recombinant GIP receptor (Homo sapiens, UniProt P48546); experiment: TagLite binding assay, GIP receptor, without and with 2% HSA
T1 sequence (P48546 22-466): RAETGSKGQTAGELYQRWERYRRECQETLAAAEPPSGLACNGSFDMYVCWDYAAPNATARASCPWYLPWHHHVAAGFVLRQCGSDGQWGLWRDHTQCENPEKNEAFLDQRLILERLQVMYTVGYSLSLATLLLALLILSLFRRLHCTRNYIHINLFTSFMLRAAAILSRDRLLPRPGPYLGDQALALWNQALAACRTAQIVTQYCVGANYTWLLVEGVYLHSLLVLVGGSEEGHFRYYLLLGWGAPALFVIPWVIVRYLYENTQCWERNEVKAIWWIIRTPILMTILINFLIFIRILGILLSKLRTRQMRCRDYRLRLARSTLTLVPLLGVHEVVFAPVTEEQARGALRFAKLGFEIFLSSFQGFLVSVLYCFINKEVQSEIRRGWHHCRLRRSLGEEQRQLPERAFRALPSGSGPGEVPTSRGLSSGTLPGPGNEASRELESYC
Description: as §1

[4] = 2% human serum albumin, read-out: GLP-1 receptor IC50 2% HSA
[5] = no HSA, read-out: GLP-1 receptor IC50 No HSA
[6] = 2% human serum albumin, read-out: GIP receptor IC50 2% HSA
[7] = no HSA, read-out: GIP receptor IC50 No HSA

Chain of human recombinant GLP-1 receptor (P43220 24-463): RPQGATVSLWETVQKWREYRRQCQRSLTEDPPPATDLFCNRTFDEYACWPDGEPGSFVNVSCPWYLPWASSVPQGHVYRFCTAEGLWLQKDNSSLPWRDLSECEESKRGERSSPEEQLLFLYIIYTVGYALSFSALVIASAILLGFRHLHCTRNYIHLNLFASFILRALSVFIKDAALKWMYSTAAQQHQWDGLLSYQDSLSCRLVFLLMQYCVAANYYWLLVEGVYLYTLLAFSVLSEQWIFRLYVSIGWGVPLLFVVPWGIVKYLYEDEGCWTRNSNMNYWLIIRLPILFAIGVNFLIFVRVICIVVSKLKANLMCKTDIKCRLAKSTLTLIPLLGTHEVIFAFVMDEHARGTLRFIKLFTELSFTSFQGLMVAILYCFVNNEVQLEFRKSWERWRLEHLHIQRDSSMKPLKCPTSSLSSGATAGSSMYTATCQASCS

SMILES	IC50 [1, 4]	IC50 [1, 5]	AUC(0-inf) [2]	AUC(0-t) [2]	Cmax [2]	Tmax [2]	half-life [2]	mean half life longer compared to tirzepatide [2]	IC50 [3, 6]	IC50 [3, 7]
CC[C@H](C)[C@H](NC(=O)[C@H](CC(C)C)NC(=O)[C@H](Cc1c[nH]c2ccccc12)NC(=O)[C@H](CCC(N)=O)NC(=O)[C@@H](NC(=O)[C@H](Cc1ccccc1)NC(=O)[C@H](C)NC(=O)[C@H](CCCCNC(=O)COCCOCCNC(=O)COCCOCCNC(=O)CC[C@H](NC(=O)CCCCCCCCCCCCCCCCCCP(=O)(O)O)C(=O)O)NC(=O)[C@H](CCC(N)=O)NC(=O)[C@H](C)NC(=O)[C@@H](NC(=O)[C@H](CCCCN)NC(=O)[C@H](CC(=O)O)NC(=O)[C@H](CC(C)C)NC(=O)[C@H](Cc1ccccc1)NC(=O)[C@@H](NC(=O)[C@H](CO)NC(=O)[C@H](Cc1ccc(O)cc1)NC(=O)[C@H](CC(=O)O)NC(=O)[C@H](CO)NC(=O)[C@@H](NC(=O)[C@H](Cc1ccccc1)NC(=O)[C@@H](NC(=O)CNC(=O)[C@H](CCC(=O)O)NC(=O)C(C)(C)NC(=O)[C@@H](N)Cc1ccc(O)cc1)[C@@H](C)O)[C@@H](C)O)[C@@H](C)CC)C(C)C)C(C)C)C(=O)N[C@@H](C)C(=O)NCC(=O)NCC(=O)N1CCC[C@H]1C(=O)N[C@@H](CO)C(=O)N[C@@H](CO)C(=O)NCC(=O)N[C@@H](C)C(=O)N1CCC[C@H]1C(=O)N1CCC[C@H]1C(=O)N1CCC[C@H]1C(=O)N[C@@H](CO)C(N)=O [Compound 19] (H-Y[Aib]EGTFTSDYSIFLDKVAQK([AEEA-AEEA-γGlu-Nonadecanoyl(19-PO3H2)])AFVQWLIAGGPSSGAPPPS-NH2)	1340 nM	153 nM	175 µg·h/mL	159 µg·h/mL	1240 ng/mL	20 h	96.7 h	at least 50%	4440 nM	551 nM
CC[C@H](C)[C@H](NC(=O)[C@H](CC(C)C)NC(=O)[C@H](Cc1c[nH]c2ccccc12)NC(=O)[C@H](CCC(N)=O)NC(=O)[C@@H](NC(=O)[C@H](Cc1ccccc1)NC(=O)[C@H](C)NC(=O)[C@H](CCCCNC(=O)COCCOCCNC(=O)COCCOCCNC(=O)CC[C@H](NC(=O)CCCCCCCCCCCCCCCCCCP(=O)(O)O)C(=O)O)NC(=O)[C@H](CCC(N)=O)NC(=O)[C@H](C)NC(=O)[C@@H](NC(=O)[C@H](CCCCN)NC(=O)[C@H](CC(=O)O)NC(=O)[C@H](CC(C)C)NC(=O)C(C)(C)NC(=O)[C@@H](NC(=O)[C@H](CO)NC(=O)[C@H](Cc1ccc(O)cc1)NC(=O)[C@H](CC(=O)O)NC(=O)[C@H](CO)NC(=O)[C@@H](NC(=O)[C@H](Cc1ccccc1)NC(=O)[C@@H](NC(=O)CNC(=O)[C@H](CCC(=O)O)NC(=O)C(C)(C)NC(=O)[C@@H](N)Cc1ccc(O)cc1)[C@@H](C)O)[C@@H](C)O)[C@@H](C)CC)C(C)C)C(C)C)C(=O)N[C@@H](C)C(=O)NCC(=O)NCC(=O)N1CCC[C@H]1C(=O)N[C@@H](CO)C(=O)N[C@@H](CO)C(=O)NCC(=O)N[C@@H](C)C(=O)N1CCC[C@H]1C(=O)N1CCC[C@H]1C(=O)N1CCC[C@H]1C(=O)N[C@@H](CO)C(N)=O [Compound 17] (H-Y[Aib]EGTFTSDYSI[Aib]LDKVAQK([AEEA-AEEA-γGlu-Nonadecanoyl(19-PO3H2)])AFVQWLIAGGPSSGAPPPS-NH2)	3740 nM	316 nM	286 µg·h/mL	254 µg·h/mL	2300 ng/mL	6.67 h	102 h	at least 50%	4170 nM	543 nM
